The values below come from article PMC7405012, “Detection of Chaetomium globosum, Ch. cochliodes and Ch. rectangulare during the Diversity Tracking of Mycotoxin-Producing Chaetomium-like Isolates Obtained in Buildings in Finland” (Toxins, 2020).

Experiment [1] concerns resting boar spermatozoa. As to the kind of experiment: Motility inhibition of resting boar spermatozoa (BSMIR). The class given is cell-based. To be noted: resting boar sperm, 24 °C, 2 days. As for the experimental part: Three criteria were assessed: (1) the motility inhibition of resting boar spermatozoa (BSMIR); (2) the change in mitochondrial membrane potential (ΔΨ) observed using the potentiometric dye JC-1; and (3) the plasma membrane integrity (SMIDR) observed using the viability stain calcein-AM + propidium iodide (PI). […] By contrast, the EC50 concentrations in the SMIDR assays, which measured the lethal damages in plasma membrane after incubation for two days, were >50 times higher (Figure 5 and Table 3).
The procedure for the BSMIR assay measuring sublethal toxicity as motility inhibition, i.e., inability to respond to induction of motility in resting sperm cells is described below: The ethanol solutions (0.5–10 μL) were dispensed in 2000 μL of extended boar semen (Figen Ltd., Tuomikylä, Finland, density of 27 × 10^6 sperms mL^−1) incubated at 24 °C, and motility of the sperms was inspected in the phase-contrast microscope (400× magnification) with a heated stage, (Olympus CKX41, Tokyo, Japan; magnification 400×) and an image recording software (Cellsense® standard version 11.0.06, Olympus Soft Imaging Solutions GmbH, Münster, Germany, 2012) as described previously. […] The EC50 was calculated from the equation of the straight line between EC50-40 and EC80-90: Y = −ΔY/ΔX × X + C where Y is the motility closest to 50% of the motility of the solvent control, X is the EC50 concentration and C is a constant between 100% and 60%. All tests were run in triplicates and differences between replicate tests were within one dilution step (2-fold). The sperm assays were calibrated with triclosan and valinomycin.

Experiment [2] concerns Ch. cochliodes OT7b. The experiment can be described thus: Resistance to biocides: ascospore germination. It counts as cell-based. The conditions noted are these: strain OT7b, indoor Ch. cochliodes. As for the experimental part:
(§1) The toxicity of biocides and chemicals towards the indoor Chaetomium-like isolates and the reference indoor strains of the genera Aspergillus, Paecilomyces, Penicillium and Trichoderma was assessed in parallel with the six parameters presented in the Supplementary Materials: (1) germ tube assay (Figure S3); (2) estimation of turbidity (Figure S4); (3) visual emission of fluorescence (excitation at 360 nm); (4) visual resporulation of conidia; (5) inhibition of glucose consumption; and (6) resazurin reduction. All assays were performed in malt extract broth (12 g L^−1 malt extract, 7.2 µmol mL^−1 glucose, pH 5.5; Scharlab, Barcelona, Spain) in 96-well microtiter plates as described for the ICP assay.
(§2) The assays measuring inhibition of germination of conidia were done with spore suspensions of 1–2 × 10^6 fungal spores mL−^1. The tests were performed in malt extract broth (Oxoid, Hampshire United Kingdom) 12 g in 1 L, pH 5.5, glucose 7.1 mmol L^−1, and performed on microtiter plates as described by Bencsik et al. for the ICP assay. The germ tube germination is visualized in Figure S3, and the tests estimating turbidity and emission of fluorescence provoked by the germinated and metabolically active conidia and C. globosum ascospores are visualized in Figures S4 and S5. Examples of the tests estimating fluorescence emission, turbidity and re-sporulation of conidia and ascospores are compared in Figure S5. The difference of the endpoints measured with the different assays was between […]. The resazurin reduction assays (Figure S6) were performed as described for the ICP assay, except that the microtiter plates were visually inspected for the change of the blue/violet color of resazurin (indicating inhibition of germination of the exposed conidia) to the […] (indicating metabolic activity and germination of the exposed conidia).
(§3) The formation of germ tubes was inspected by a phase-contrast microscope (Olympus CKX41, Tokyo, Japan; magnification 400×) and an image recording software (Cellsense® standard version 11.0.06, Olympus Soft Imaging Solutions GmbH, Münster, Germany, 2012) after 1 and 2 days of incubation at 28 °C. The EC50 corresponded to the inhibition of 50% (estimated as the concentration between EC0 and EC100) of the conidia compared to the ethanol control (the growth medium containing 1% of ethanol). The tests were run in triplicate and calibrated with triclosan (CAS: 3380-34-5; Sigma Chemical Co., St. Louis, MO, USA) giving a mean SD of ±<20%.

Experiment [3] concerns Ch. rectangulare M015. The experiment can be described thus: Resistance to biocides: ascospore germination. It counts as cell-based. To be noted: strain M015, indoor Ch. rectangulare. As for the experimental part: as §1, §2, §3
The test system of experiment [4] is Ch. cochliodes OT7. The experiment can be described thus: Resistance to biocides: ascospore germination. The class given is cell-based. To be noted: strain OT7, indoor Ch. cochliodes. As for the experimental part: as §1, §2, §3
The test system of experiment [5] is Ch. globosum MTAV35. The experiment can be described thus: Resistance to biocides: ascospore germination. It counts as cell-based, Chaetomium globosum. The conditions noted are these: strain MTAV35, indoor Ch. globosum, median of four independent measurements with five methods. As for the experimental part: as §1, §2, §3
Experiment [6] concerns Ch. globosum C22/LM. The experiment can be described thus: Resistance to biocides: ascospore germination. To be noted: strain C22/LM, indoor Ch. globosum. It counts as cell-based, Chaetomium globosum. As for the experimental part: as §1, §2, §3
Experiment [7] relates to Ch. globosum RUK10. As to the kind of experiment: Resistance to biocides: ascospore germination. The class given is cell-based, Chaetomium globosum. To be noted: strain RUK10, indoor Ch. globosum. As for the experimental part:
as §1, §2, §3

For experiment [8], the system named is Ch. globosum 3b/AP. The experiment can be described thus: Resistance to biocides: ascospore germination. It counts as cell-based, Chaetomium globosum. To be noted: strain 3b/AP, indoor Ch. globosum. As for the experimental part: as §1, §2, §3
For experiment [9], the system named is Ch. globosum MTAV37. As to the kind of experiment: Resistance to biocides: ascospore germination. To be noted: strain MTAV37, indoor Ch. globosum. It counts as cell-based, Chaetomium globosum. As for the experimental part: as §1, §2, §3
Experiment [10] has as its system Ch. globosum 2c/MT. As to the kind of experiment: Resistance to biocides: ascospore germination. The class given is cell-based, Chaetomium globosum. The conditions noted are these: strain 2c/MT, indoor Ch. globosum. As for the experimental part: as §1, §2, §3
Experiment [11] has as its system Ch. globosum 2b/26. The experiment can be described thus: Resistance to biocides: ascospore germination. It counts as cell-based, Chaetomium globosum. To be noted: strain 2b/26, indoor Ch. globosum. As for the experimental part: as §1, §2, §3
Experiment [12] deals with Ch. globosum MH 52. The experiment can be described thus: Resistance to biocides: ascospore germination. The class given is cell-based, Chaetomium globosum. To be noted: strain MH 52, indoor Ch. globosum. As for the experimental part: as §1, §2, §3
Experiment [13] has as its system Ch. globosum ABCD. The experiment can be described thus: Resistance to biocides: ascospore germination. The class given is cell-based, Chaetomium globosum. The conditions noted are these: strain ABCD, indoor Ch. globosum. As for the experimental part: as §1, §2, §3
Experiment [14] concerns Ch. globosum MO9. As to the kind of experiment: Resistance to biocides: ascospore germination. The class given is cell-based, Chaetomium globosum. To be noted: strain MO9, indoor Ch. globosum. As for the experimental part: as §1, §2, §3
Experiment [15] has as its system Ch. globosum HAS5. As to the kind of experiment: Resistance to biocides: ascospore germination. The class given is cell-based, Chaetomium globosum. The conditions noted are these: strain HAS5, indoor Ch. globosum. As for the experimental part:
as §1, §2, §3

For experiment [16], the system named is Ch. rectangulare Mo13. The experiment can be described thus: Resistance to biocides: ascospore germination. It counts as cell-based. As for the experimental part: as §1, §2, §3
For experiment [17], the system named is Outdoor Chaetomium-like strain CH1/tu. The experiment can be described thus: Resistance to biocides: ascospore germination. It counts as cell-based, Unidentified Chaetomium-like strain. As for the experimental part:
as §1
The assays measuring inhibition of germination of conidia were done with spore suspensions of 1–2 × 10^6 fungal spores mL−^1. […] The germ tube germination is visualized in Figure S3, and the tests estimating turbidity and emission of fluorescence provoked by the germinated and metabolically active conidia and C. globosum ascospores are visualized in Figures S4 and S5. Examples of the tests estimating fluorescence emission, turbidity and re-sporulation of conidia and ascospores are compared in Figure S5. The difference of the endpoints measured with the different assays was between 38% and <28.5%. […]

Setting [18] is: Chaetomium globosum, read-out: EC50.
The mark [19] stands for this setting: Chaetomium globosum, MH52, read-out: EC50.

≈ marks a conversion by molar mass, not a printed value. Read-outs that look alike come from different tables or passages of the source.

In the case of `C/C1=C\[C@@H](C)C/C=C/[C@H]2[C@@H]3O[C@]3(C)[C@@H](C)[C@H]3[C@H](Cc4c[nH]c5ccccc45)NC(=O)[C@]32C(=O)/C=C/C(=O)[C@@H]1O` [Chaetoglobosin A, chaetoglobosin A], the “EC50 Sublethal Toxicity BSMIR 2 days” value in experiment [1] amounted to 1 µg/mL (≈ 0.00189 mM).

As a reminder, the EC50 is the concentration that produces a half-maximal response. Take `OCCOc1ccccc1` [Phenoxy-ethanol, phenoxyethanol]: the EC50 is 3000 µg/mL (≈ 21.7 mM) in experiment [2] (read-out: EC50); 1500 µg/mL (≈ 10.9 mM) in experiment [3] (read-out: EC50); 3000 µg/mL (≈ 21.7 mM) in experiment [4] (read-out: EC50); 700 µg/mL (≈ 5.07 mM) in experiment [5] (setting [18]); 1500 µg/mL (≈ 10.9 mM) in [6] (setting [18]); 1500 µg/mL (≈ 10.9 mM) in experiment [7] (setting [18]). For the same compound, the EC50 in experiment [8] (setting [18]) was determined as 1500 µg/mL (≈ 10.9 mM); in experiment [9] (setting [18]), 700 µg/mL (≈ 5.07 mM); in experiment [10] (setting [18]) it was 1500 µg/mL (≈ 10.9 mM); in experiment [11] (setting [18]), 1500 µg/mL (≈ 10.9 mM); in experiment [12] (setting [19]), 1500 µg/mL (≈ 10.9 mM); in [13] (setting [18]), 1500 µg/mL (≈ 10.9 mM). The EC50 came out at 700 µg/mL (≈ 5.07 mM) in experiment [14] (setting [18]) and 1500 µg/mL (≈ 10.9 mM) in experiment [15] (setting [18]).

Consider “polyhexamethylene biguanide hydrochloride [PHMB]”, for which the EC50 in [2] turned out to be 8 µg/mL; in experiment [3], 4 µg/mL; in experiment [4], 8 µg/mL; in [16] (strain Mo13, indoor Ch. rectangulare), 4 µg/mL; in experiment [5], 4 µg/mL; in experiment [6], 8 µg/mL. In addition, the EC50 in experiment [7] was 4 µg/mL; in experiment [8], 8 µg/mL; in experiment [9], 4 µg/mL; in experiment [10] it was 8 µg/mL; in experiment [11], 8 µg/mL; in experiment [12], 4 µg/mL. The EC50 was determined as 4 µg/mL in [13], 4 µg/mL in experiment [14], 8 µg/mL in experiment [15] and 4 µg/mL in experiment [17].

As to `O=BOB(O)OB(O)OB=O` [Borax, sodium tetraborate], the EC50 is 750 µg/mL in [2] (read-out: EC50); 5000 µg/mL in experiment [3] (read-out: EC50); 750 µg/mL in experiment [4] (read-out: EC50); greater than 5000 µg/mL in [16]; 5000 µg/mL in [5] (setting [18]); greater than 5000 µg/mL in experiment [6] (setting [18]). Besides, the EC50 in experiment [7] (setting [18]) was 5000 µg/mL; in [8] (setting [18]), greater than 5000 µg/mL; in [9] (setting [18]), 5000 µg/mL; in experiment [10] (setting [18]), greater than 5000 µg/mL; in experiment [11] (setting [18]) it was greater than 5000 µg/mL; in experiment [12] (setting [19]) it was 5000 µg/mL. Besides, the 50% effective concentration (EC50) was 5000 µg/mL in [13] (setting [18]), greater than 5000 µg/mL in [14] (setting [18]), greater than 5000 µg/mL in experiment [15] (setting [18]) and 1200 µg/mL in experiment [17] (read-out: EC50).

With `NCl` [Chloramine, chloramine], the EC50 is 1200 µg/mL (≈ 23.3 mM) in experiment [3]; 2500 µg/mL (≈ 48.6 mM) in [6]; 2500 µg/mL (≈ 48.6 mM) in experiment [7]; 2500 µg/mL (≈ 48.6 mM) in experiment [8]; 2500 µg/mL (≈ 48.6 mM) in [10]; 2500 µg/mL (≈ 48.6 mM) in experiment [11]. Further, the EC50 in experiment [14] and in [15] was 2500 µg/mL (≈ 48.6 mM) throughout.

On to `Oc1cc(Cl)ccc1Oc1ccc(Cl)cc1Cl` [Triclosan, 5-Chloro-2-(2,4-dichlorophenoxy)phenol], for which the concentration for a half-maximal effect (EC50) stood at 4 µg/mL (≈ 0.0138 mM) in experiment [2] (read-out: EC50); 2 µg/mL (≈ 0.00691 mM) in experiment [3] (read-out: EC50); 4 µg/mL (≈ 0.0138 mM) in experiment [4] (read-out: EC50); 2 µg/mL (≈ 0.00691 mM) in experiment [5] (setting [18]); 4 µg/mL (≈ 0.0138 mM) in experiment [6] (setting [18]); 2 µg/mL (≈ 0.00691 mM) in experiment [7] (setting [18]). The concentration for a half-maximal effect (EC50) was 4 µg/mL (≈ 0.0138 mM) in experiment [8] (setting [18]); 4 µg/mL (≈ 0.0138 mM) in experiment [9] (setting [18]); 4 µg/mL (≈ 0.0138 mM) in experiment [10] (setting [18]); 4 µg/mL (≈ 0.0138 mM) in [11] (setting [18]); 2 µg/mL (≈ 0.00691 mM) in [12] (setting [19]); 4 µg/mL (≈ 0.0138 mM) in experiment [13] (setting [18]). Moreover, the EC50 in experiment [14] (setting [18]) and in experiment [15] (setting [18]) was 2 µg/mL (≈ 0.00691 mM) each time.
